In patent US9120805B2, “Substituted pyrrolo[1,2-A]pyrazin-1-ones and pyrazolo[1,5-A]pyrazin-4-ones as inhibitors of tankyrase and poly(ADP-ribose)polymerase activity” (Merck Patent GmbH, priority 2012, dated 2015) one finds IC50 and EC50 data, which are given here for ten molecules.

In experiment [1] the target is T1, GST-tagged Tankyrase-2 (873-1166 aa) (Homo sapiens, UniProt Q9H2K2).
T1 construct: GST-tagged Tankyrase-2 (873-1166 aa)
Put plainly: Tankyrase 2 autoparsylation assay (HTRF enzyme assay). The class given is biochemical. The procedure:
(§1) Biochemical Activity Testing of Tankyrase 1 and 2: Autoparsylation Assay
(§2) The autoparsylation assay is run in two steps: the enzymatic reaction in which GST-tagged Tankyrase-1, resp Tankyrase-2 transferred biotinylated ADP-ribose to itself from biotinylated NAD as co-substrate and the detection reaction where a time resolved FRET between cryptate labelled anti-GST bound to the GST tag of the enzyme and Xlent® labelled-streptavidin bound the biotin-parsylation residue is analysed. The autoparsylation activity was detectable directly via the increase in HTRF signal.
(§3) The autoparsylation assay is performed as 384-well HTRF® (Cisbio, Codolet, France) assay format in Greiner low volume nb 384-well microtiter plates and is used for high throughput screen. 250 nM GST-tagged Tankyrase-1 (1023-1327 aa), respectively about 250 nM GST-tagged Tankyrase-2 (873-1166 aa) and 5 μM bio-NAD (Biolog, Life science Inst., Bremen, Germany) as co-substrate are incubated in a total volume of 5 μl (50 mM HEPES, 4 mM Mg-chloride, 0.05% Pluronic F-68, 1.4 mM DTT, 0.5% DMSO, pH 7.7) in the absence or presence of the test compound (10 dilution concentrations) for 90 min at 30° C. The reaction is stopped by the addition of 1 μl 50 mM EDTA solution. 2 μl of the detection solution (1.6 μM SA-Xlent® (Cisbio, Codolet, France), 7.4 nM Anti-GST-K® (Eu-labelled anti-GST, Cisbio, Codolet, France) in 50 mM HEPES, 800 mM KF, 0.1% BSA, 20 mM EDTA, 0.1% CHAPS, pH 7.0) are added. After 1 h incubation at room temperature the HTRF is measured with an Envision multimode reader (Perkin Elmer LAS Germany GmbH) at excitation wavelength 340 nm (laser mode) and emission wavelengths 615 nm and 665 nm. The ratio of the emission signals is determined. The full value used is the inhibitor-free reaction. The pharmacological zero value used is XAV-939 (Tocris) in a final concentration of 5 μM. The inhibitory values (IC50) are determined using either the program Symyx Assay Explorer® or Condosseo® from GeneData.
(In TR-FRET formats the signal depends on donor and acceptor labels being close together.)

Experiment [2] concerns the target T2, GST-tagged Tnks-1 (1023-1327 aa) (Homo sapiens, UniProt O95271).
T2 construct: GST-tagged Tnks-1 (1023-1327 aa, prepared in-house); made in house
Nature of the experiment: TNKS1 activity ELISA (autoparsylation assay). Format: biochemical. How it is done:
(§4) Description of the TNKS1 and TNKS2 ELISA Assay
(§5) Biochemical Activity Testing of TNKS 1 and 2: Activity ELISA (Autoparsylation Assay)
(§6) For analysis of autoparsylation activity of TNKS 1 and 2 an activity ELISA is performed: In the first step GST tagged TNKS is captured on a Glutathione coated plate. Then the activity assay with biotinylated NAD is performed in the absence/presence of the compounds. During the enzymatic reaction GST tagged TNKS transfers biotinylated ADP-ribose to itself from biotinylated NAD as co-substrate. For the detection streptavidin-HRP conjugate is added that binds to the biotinylated TNKS and is thereby captured to the plates. The amount of biotinylated resp. autoparsylated TNKS is detected with a luminescence substrate for HRP. The level of the luminescence signal correlates directly with the amount of autoparsylated TNKS and therefore with activity of TNKS.
(§7) The activity ELISA is performed in 384 well Glutathione coated microtiter plates (Express capture Glutathione coated plate, Biocat, Heidelberg, Germany). The plates are pre-equilibrated with PBS. Then the plates are incubated with 50 μl 20 ng/well GST-tagged Tnks-1 (1023-1327 aa, prepared in-house), respectively GST-tagged Tnks-2 (873-1166 aa, prepared in-house) in assay buffer (50 mM HEPES, 4 mM Mg-chloride, 0.05% Pluronic F-68, 2 mM DTT, pH 7.7) overnight at 4° C. The plates are washed 3 times with PBS-Tween-20. The wells are blocked by incubation at room temperature for 20 minutes with 50 μl blocking buffer (PBS, 0.05% Tween-20, 0.5% BSA). Afterwards the plates are washed 3 times with PBS-Tween-20. The enzymatic reaction is performed in 50 μl reaction solution (50 mM HEPES, 4 mM Mg-chloride, 0.05% Pluronic F-68, 1.4 mM DTT, 0.5% DMSO, pH 7.7) with 10 μM bio-NAD (Biolog, Life science Inst., Bremen, Germany) as co-substrate in the absence or presence of the test compound (10 dilution concentrations) for 1 hour at 30° C. The reaction is stopped by 3 times washing with PBS-Tween-20. For the detection 50 μl of 20 ng/μl Streptavidin, HRP conjugate (MoBiTec, Göttingen, Germany) in PBS/0.05% Tween-20/0.01% BSA are added and the plates are incubated for 30 minutes at room temperature. After three times washing with PBS-Tween-20 50 μl of SuperSignal ELISA Femto Maximum sensitivity substrate solution (ThermoFisherScientific (Pierce), Bonn, Germany) are added. Following a 1 minute incubation at room temperature luminescence signals are measured with an Envision multimode reader (Perkin Elmer LAS Germany GmbH) at 700 nm. The full value used is the inhibitor-free reaction. The pharmacological zero value used is XAV-939 (Tocris) in a final concentration of 5 μM. The inhibitory values (1050) are determined using either the program Symyx Assay Explorer® or Condosseo® from GeneData.

Experiment [3] concerns the target T3, GST-tagged Tankyrase-1 (1023-1327 aa) (Homo sapiens, UniProt O95271).
T3 construct: GST-tagged Tankyrase-1 (1023-1327 aa)
Nature of the experiment: Tankyrase 1 autoparsylation assay (HTRF enzyme assay). The class given is biochemical. The procedure:
as §1, §2, §3

Experiment [4] addresses T4, GST-tagged Tnks-2 (873-1166 aa) (Homo sapiens, UniProt Q9H2K2).
T4 construct: GST-tagged Tnks-2 (873-1166 aa, prepared in-house); made in house
Nature of the experiment: TNKS2 activity ELISA (autoparsylation assay). The class given is biochemical. How it is done: as §4, §5, §6, §7

The test system of another experiment is tankyrase 1/2. Nature of the experiment: Cellular inhibition of Tankyrase: increase of Axin2 level in DLD1 cells (Luminex). Particulars: 24 hours, read-out: EC50 tankyrase 1/2 (cell assay). The class given is cell-based. How it is done: Measurement of Cellular Inhibition of Tankyrase
Since Tankyrases have been described to modulate cellular level of Axin2 (Huang et al., 2009; Nature) the increase of Axin2 level is used as read-out for determination of cellular inhibition of Tankyrases in a Luminex based assay.
Cells of the colon carcinoma cell line DLD1 are plated in 96 well plates with 1.5×10^4 cells per well. Next day, cells are treated with a serial dilution of test compound in seven steps as triplicates with a final DMSO concentration of 0.3%. After 24 hours, cells are lysed in lysis buffer (20 mM Tris/HCl pH 8.0, 150 mM NaCl, 1% NP40, 10% Glycerol) and lysates are cleared by centrifugation through a 96 well filter plate (0.65 μm). Axin2 protein is isolated from cell lysates by incubation with a monoclonal anti-Axin2 antibody (R&D Systems #MAB6078) that is bound to fluorescent carboxybeads. Then, bound Axin2 is specifically detected with a polyclonal anti-Axin2 antibody (Cell Signaling #2151) and an appropriate PE-fluorescent secondary antibody. The amount of isolated Axin2 protein is determined in a Luminex^200 machine (Luminex Corporation) according to the manufacturer's instruction by counting 100 events per well. Inhibition of Tankyrase by test compounds results in higher levels of Axin2 which directly correlates with an increase of detectable fluorescence. As controls cells are treated with solvent alone (neutral control) and with a Tankyrase reference inhibitor IWR-2 (3E-06 M) which refers as control for maximum increase of Axin2. For analysis, the obtained data are normalized against the untreated solvent control and fitted for determination of the EC50 values using the Assay Explorer software (Accelrys).

The next experiment concerns the target T5, His-tagged Parp-1 (Homo sapiens, UniProt P09874).
T5 construct: purchased Enzo Life Sciences GmbH
Nature of the experiment: PARP-1 autoparsylation assay (HTRF). Particulars: PARP-1 autoparsylation HTRF assay. The class given is biochemical. An excerpt: Description of the PARP1 Assay
Biochemical Activity Testing of PARP-1: Autoparsylation Assay
The autoparsylation assay is run in two steps: the enzymatic reaction in which
His-tagged Parp-1 transfers biotinylated ADP-ribose/ADP-ribose to itself from biotinylated NAD/NAD as co-substrate and the detection reaction where a time resolved FRET between cryptate labelled anti-His antibody bound to the His tag of the enzyme and Xlent® labelled-streptavidin bound the biotin-parsylation residue is analysed. The autoparsylation activity is detectable directly via the increase in HTRF signal.
The autoparsylation assay is performed as 384-well HTRF® (Cisbio, Codolet, France) assay format in Greiner low volume nb 384-well microtiter plates. 35 nM His-tagged Parp-1 (human, recombinant, Enzo Life Sciences GmbH, Lörrach, Germany) and a mixture of 125 nM bio-NAD (Biolog, Life science Inst., Bremen, Germany) and 800 nM NAD as co-substrate are incubated in a total volume of 6 μl (100 mM Tris/HCl, 4 mM Mg-chloride, 0.01% IGEPAL® CA630, 1 mM DTT, 0.5% DMSO, pH 8, 13 ng/μl activated DNA (BPS Bioscience, San Diego, US)) in the absence or presence of the test compound (10 dilution concentrations) for 150 min at 23° C. The reaction is stopped by the addition of 4 μl of the Stop/detection solution (70 nM SA-Xlent® (Cisbio, Codolet, France), 2.5 nM Anti-His-K® (Eu-labelled anti-His, Cisbio, Codolet, France) in 50 mM HEPES, 400 mM KF, 0.1% BSA, 20 mM EDTA, pH 7.0). After 1 h incubation at room temperature the HTRF is measured with an Envision multimode reader (Perkin Elmer LAS Germany GmbH) at excitation wavelength 340 nm (laser mode) and emission wavelengths 615 nm and 665 nm. The ratio of the emission signals is determined. The full value used is the inhibitor-free reaction. The pharmacological zero value used is Olaparib (LClabs, Woburn, US) in a final concentration of 1 μM. The inhibitory values (IC50) are determined using either the program Symyx Assay Explorer® or Condosseo® from GeneData.

T4 sequence (Q9H2K2 873-1166): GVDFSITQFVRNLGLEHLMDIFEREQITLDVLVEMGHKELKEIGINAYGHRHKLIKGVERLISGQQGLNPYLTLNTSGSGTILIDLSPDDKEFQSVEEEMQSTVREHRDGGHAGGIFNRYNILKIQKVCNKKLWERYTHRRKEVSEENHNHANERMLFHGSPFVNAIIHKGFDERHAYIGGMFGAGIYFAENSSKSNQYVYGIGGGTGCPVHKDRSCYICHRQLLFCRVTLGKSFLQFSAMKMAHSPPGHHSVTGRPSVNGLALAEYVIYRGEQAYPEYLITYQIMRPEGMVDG
T1 sequence (Q9H2K2 873-1166): as above
T3 sequence (O95271 1023-1327): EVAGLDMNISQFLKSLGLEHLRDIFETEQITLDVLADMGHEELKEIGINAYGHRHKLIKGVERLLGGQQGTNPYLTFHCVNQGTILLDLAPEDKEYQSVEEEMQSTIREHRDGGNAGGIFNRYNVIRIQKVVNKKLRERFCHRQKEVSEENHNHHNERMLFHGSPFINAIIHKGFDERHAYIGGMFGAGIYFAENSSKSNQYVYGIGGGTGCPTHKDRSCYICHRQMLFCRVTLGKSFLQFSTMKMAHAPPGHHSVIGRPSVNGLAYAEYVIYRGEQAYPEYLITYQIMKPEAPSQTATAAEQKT
T2 sequence (O95271 1023-1327): as above
T5 sequence (P09874 whole entry): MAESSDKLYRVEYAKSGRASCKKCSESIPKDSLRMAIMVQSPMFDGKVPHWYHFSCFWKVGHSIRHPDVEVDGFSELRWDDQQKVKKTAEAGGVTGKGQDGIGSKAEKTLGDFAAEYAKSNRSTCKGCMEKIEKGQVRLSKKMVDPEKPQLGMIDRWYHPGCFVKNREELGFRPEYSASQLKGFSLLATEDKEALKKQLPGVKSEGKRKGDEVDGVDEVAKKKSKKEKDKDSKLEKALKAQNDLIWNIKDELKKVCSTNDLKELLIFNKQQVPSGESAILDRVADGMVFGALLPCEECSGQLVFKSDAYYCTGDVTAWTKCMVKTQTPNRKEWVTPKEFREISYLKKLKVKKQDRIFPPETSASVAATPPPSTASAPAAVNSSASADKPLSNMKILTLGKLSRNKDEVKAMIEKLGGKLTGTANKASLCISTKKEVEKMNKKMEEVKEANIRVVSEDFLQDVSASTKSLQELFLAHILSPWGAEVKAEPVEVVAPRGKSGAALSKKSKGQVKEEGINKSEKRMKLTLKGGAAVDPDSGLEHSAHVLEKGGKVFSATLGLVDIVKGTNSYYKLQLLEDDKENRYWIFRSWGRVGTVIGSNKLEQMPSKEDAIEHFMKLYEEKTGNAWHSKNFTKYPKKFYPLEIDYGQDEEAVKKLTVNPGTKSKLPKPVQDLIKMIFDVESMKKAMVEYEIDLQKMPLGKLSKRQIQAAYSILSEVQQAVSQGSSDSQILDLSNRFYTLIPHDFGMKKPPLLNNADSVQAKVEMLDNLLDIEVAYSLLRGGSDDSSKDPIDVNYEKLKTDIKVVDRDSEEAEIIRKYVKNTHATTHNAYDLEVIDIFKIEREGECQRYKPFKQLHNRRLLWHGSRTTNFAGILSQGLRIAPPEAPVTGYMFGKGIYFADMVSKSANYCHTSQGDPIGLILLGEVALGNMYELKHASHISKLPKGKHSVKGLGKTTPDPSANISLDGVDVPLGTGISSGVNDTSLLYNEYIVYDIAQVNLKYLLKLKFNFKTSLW

Take `CC(C)(C)c1ccc(-c2cn3nccc3c(=O)[nH]2)cc1` [Compound A15, 6-(4-tert-butyl-phenyl)-5H-pyrazolo[1,5-a]pyrazin-4-one]: the IC50 in experiment [1], in experiment [2], in experiment [3] and in experiment [4] was less than 300 nM throughout. Besides, the EC50 with tankyrase 1/2 is less than 300 nM.
For `CC(C)(C)c1ccc(-c2cn3nc(CO)cc3c(=O)[nH]2)cc1` [Compound A18, 6-(4-tert-butyl-phenyl)-2-hydroxymethyl-5H-pyrazolo[1,5-a]pyrazin-4-one], the IC50 in experiment [1] is 300 to 3000 nM; in experiment [2] it was less than 300 nM; in experiment [3], less than 300 nM; in experiment [4], less than 300 nM. Further, the EC50 in the experiment on tankyrase 1/2 was 300 to 3000 nM.
In the case of `Cc1cc2c(=O)[nH]c(-c3ccc(N4CCCC4)cc3)cn2n1` [Compound A37, 2-methyl-6-(4-pyrrolidin-1-yl-phenyl)-5H-pyrazolo[1,5-a]pyrazin-4-one], the concentration for half-maximal inhibition (IC50) was 300 to 3000 nM in experiment [1], less than 300 nM in experiment [2] and less than 300 nM in experiment [3]. Also, the EC50 with tankyrase 1/2 lay within 300 to 3000 nM.
With `Cc1cc2c(=O)[nH]c(-c3ccc(C(C)(C)C)cc3)cn2c1` [Compound A38, 3-(4-tert-butyl-phenyl)-7-methyl-2H-pyrrolo[1,2-a]pyrazin-1-one], the IC50 in experiment [2] and in experiment [4] was less than 300 nM throughout. For the same molecule, the EC50 in the experiment on tankyrase 1/2 is less than 300 nM.
As to `CN1CCC(c2ccc(-c3cn4cc(F)cc4c(=O)[nH]3)cc2)CC1` [Compound A81, 7-fluoro-3-[4-(1-methyl-piperidin-4-yl)-phenyl]-2H-pyrrolo[1,2-a]pyrazin-1-one], the half-inhibitory concentration (IC50) in experiment [1] is 300 to 3000 nM; in experiment [2] it was less than 300 nM; in experiment [3], less than 300 nM; in experiment [4] it was less than 300 nM. In the experiment on tankyrase 1/2, the EC50 fell in the range of 300 to 3000 nM.
Turning to `CC(C)(O)c1ccc(-c2cn3c(F)c(F)cc3c(=O)[nH]2)cc1` [Compound A83, 6,7-difluoro-3-[4-(1-hydroxy-1-methyl-ethyl)-phenyl]-2H-pyrrolo[1,2-a]pyrazin-1-one], the IC50 (in experiment [2]; in experiment [4]; on His-tagged Parp-1) was less than 300 nM in each case.
As to `CC(C)(O)c1ccc(-c2cn3c(F)ccc3c(=O)[nH]2)cc1` [Compound A84, 6-fluoro-3-[4-(1-hydroxy-1-methyl-ethyl)-phenyl]-2H-pyrrolo[1,2-a]pyrazin-1-one], the figures for the IC50 (in experiment [2]; in experiment [4]; on His-tagged Parp-1) were less than 300 nM, less than 300 nM and 300 to 3000 nM, respectively.
Turning to `CC(C)(C)c1ccc(-c2cn3cc(C#N)cc3c(=O)[nH]2)cc1` [Compound A92, 3-(4-tert-butyl-phenyl)-1-oxo-1,2-dihydro-pyrrolo[1,2-a]pyrazine-7-carbonitrile], the 50% inhibitory concentration (IC50) in experiment [1] is 300 to 3000 nM; in experiment [2] it was less than 300 nM; in experiment [3] it was less than 300 nM; in experiment [4] it was less than 300 nM. The EC50 in the experiment with tankyrase 1/2 fell in the range of 3000 to 50000 nM.
For `Cc1ccc2c(=O)[nH]c(-c3ccc(C(C)(C)O)cc3)cn12` [Compound A95], the IC50 in experiment [4] is less than 300 nM. In the experiment on tankyrase 1/2, the EC50 is less than 300 nM.
As for `O=c1[nH]c(-c2ccc(C3(O)COC3)cc2)cn2cccc12` [Compound A110], the IC50 in experiment [1] is 300 to 3000 nM; in experiment [2], less than 300 nM; in experiment [3] it was less than 300 nM; in experiment [4], less than 300 nM. For the same molecule, the EC50 with tankyrase 1/2 fell in the range of 300 to 3000 nM.

As a reminder, the IC50 is the midpoint of a concentration-inhibition curve.
